Experimental data reported in PubChem BioAssay (NCI).
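Test compounds were applied to cells in 96-well plates for 48 hours at 5 doses. The concentration for full growth arrest is given as TGI.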

Experiments:
Assay in all cases: NCI-60 cell line screen, 48 h
TK-10 renal = tested on: TK-10 renal
DU-145 prostate = tested on: DU-145 prostate
U251 CNS = tested on: U251 CNS
BT-549 breast = tested on: BT-549 breast
SF-295 CNS = tested on: SF-295 CNS
OVCAR-5 ovarian = tested on: OVCAR-5 ovarian
T-47D breast = tested on: T-47D breast
M14 melanoma = tested on: M14 melanoma
ACHN renal = tested on: ACHN renal
PC-3 prostate = tested on: PC-3 prostate
OVCAR-4 ovarian = tested on: OVCAR-4 ovarian
NCI-H23 lung = tested on: NCI-H23 lung
UACC-62 melanoma = tested on: UACC-62 melanoma
SNB-75 CNS = tested on: SNB-75 CNS
SK-OV-3 ovarian = tested on: SK-OV-3 ovarian
SK-MEL-2 melanoma = tested on: SK-MEL-2 melanoma
HT29 colon = tested on: HT29 colon
NCI-H226 lung = tested on: NCI-H226 lung
SNB-19 CNS = tested on: SNB-19 CNS
SN12C renal = tested on: SN12C renal
EKVX NSCLC = tested on: EKVX NSCLC
MDA-MB-231 breast = tested on: MDA-MB-231 breast
NCI/ADR-RES ovarian = tested on: NCI/ADR-RES ovarian
SR leukemia = tested on: SR leukemia
OVCAR-8 ovarian = tested on: OVCAR-8 ovarian
MCF7 breast = tested on: MCF7 breast
HCT-15 colon = tested on: HCT-15 colon
MDA-MB-435 = tested on: MDA-MB-435
SF-268 CNS = tested on: SF-268 CNS
HS 578T breast = tested on: HS 578T breast
HOP-92 NSCLC = tested on: HOP-92 NSCLC
786-0 renal = tested on: 786-0 renal
IGROV1 ovarian = tested on: IGROV1 ovarian
RXF 393 renal = tested on: RXF 393 renal
MALME-3M melanoma = tested on: MALME-3M melanoma
A549 NSCLC = tested on: A549 NSCLC
MDA-N = tested on: MDA-N
NCI-H522 lung = tested on: NCI-H522 lung
SF-539 CNS = tested on: SF-539 CNS
HCC-2998 colon = tested on: HCC-2998 colon
UO-31 renal = tested on: UO-31 renal
HL-60(TB) leukemia = tested on: HL-60(TB) leukemia
KM12 colon = tested on: KM12 colon
SW-620 colon = tested on: SW-620 colon
UACC-257 melanoma = tested on: UACC-257 melanoma
NCI-H460 lung = tested on: NCI-H460 lung
LOX IMVI melanoma = tested on: LOX IMVI melanoma
OVCAR-3 ovarian = tested on: OVCAR-3 ovarian
K-562 leukemia = tested on: K-562 leukemia
COLO 205 colon = tested on: COLO 205 colon
HCT-116 colon = tested on: HCT-116 colon
A498 renal = tested on: A498 renal
SK-MEL-28 melanoma = tested on: SK-MEL-28 melanoma
CAKI-1 renal = tested on: CAKI-1 renal
SK-MEL-5 melanoma = tested on: SK-MEL-5 melanoma
HOP-62 NSCLC = tested on: HOP-62 NSCLC
MOLT-4 leukemia = tested on: MOLT-4 leukemia
CCRF-CEM leukemia = tested on: CCRF-CEM leukemia

Cc1[nH]c(=O)c2oc3cc4ccccc4cc3c2c1C(=O)O
TGI (TK-10 renal): > 10 µM | TGI (DU-145 prostate): > 10 µM | TGI (U251 CNS): > 10 µM | TGI (BT-549 breast): > 10 µM | TGI (SF-295 CNS): > 10 µM | TGI (OVCAR-5 ovarian): > 10 µM | TGI (T-47D breast): > 10 µM | TGI (M14 melanoma): > 10 µM | TGI (ACHN renal): > 10 µM | TGI (PC-3 prostate): > 10 µM | TGI (OVCAR-4 ovarian): > 10 µM | TGI (NCI-H23 lung): > 10 µM | TGI (UACC-62 melanoma): > 10 µM | TGI (SNB-75 CNS): > 10 µM | TGI (SK-OV-3 ovarian): > 10 µM | TGI (SK-MEL-2 melanoma): > 10 µM | TGI (HT29 colon): > 10 µM | TGI (NCI-H226 lung): > 10 µM | TGI (SNB-19 CNS): > 10 µM | TGI (SN12C renal): > 10 µM | TGI (EKVX NSCLC): > 10 µM | TGI (MDA-MB-231 breast): > 10 µM | TGI (NCI/ADR-RES ovarian): > 10 µM | TGI (SR leukemia): > 10 µM | TGI (OVCAR-8 ovarian): > 10 µM | TGI (MCF7 breast): > 10 µM | TGI (HCT-15 colon): > 10 µM | TGI (MDA-MB-435): > 10 µM | TGI (SF-268 CNS): > 10 µM | TGI (HS 578T breast): > 10 µM | TGI (HOP-92 NSCLC): > 10 µM | TGI (786-0 renal): > 10 µM | TGI (IGROV1 ovarian): > 10 µM | TGI (RXF 393 renal): > 10 µM | TGI (MALME-3M melanoma): > 10 µM | TGI (A549 NSCLC): > 10 µM | TGI (MDA-N): > 10 µM | TGI (NCI-H522 lung): > 10 µM | TGI (SF-539 CNS): > 10 µM | TGI (HCC-2998 colon): > 10 µM | TGI (UO-31 renal): > 10 µM | TGI (HL-60(TB) leukemia): > 10 µM | TGI (KM12 colon): > 10 µM | TGI (SW-620 colon): > 10 µM | TGI (UACC-257 melanoma): > 10 µM | TGI (NCI-H460 lung): > 10 µM | TGI (LOX IMVI melanoma): > 10 µM | TGI (OVCAR-3 ovarian): > 10 µM

CN(Cc1cccc2ccsc12)/N=C\c1ccc(Cl)cc1
TGI (TK-10 renal): > 100 µM | TGI (K-562 leukemia): > 100 µM | TGI (DU-145 prostate): > 100 µM | TGI (U251 CNS): > 100 µM | TGI (BT-549 breast): > 100 µM | TGI (SF-295 CNS): > 100 µM | TGI (COLO 205 colon): > 100 µM | TGI (OVCAR-5 ovarian): > 100 µM | TGI (T-47D breast): > 100 µM | TGI (M14 melanoma): > 100 µM | TGI (ACHN renal): > 100 µM | TGI (PC-3 prostate): > 100 µM | TGI (OVCAR-4 ovarian): > 100 µM | TGI (NCI-H23 lung): > 100 µM | TGI (UACC-62 melanoma): > 100 µM | TGI (SNB-75 CNS): > 100 µM | TGI (SK-OV-3 ovarian): > 100 µM | TGI (HT29 colon): > 100 µM | TGI (NCI-H226 lung): > 100 µM | TGI (SNB-19 CNS): > 100 µM | TGI (SN12C renal): > 100 µM | TGI (EKVX NSCLC): > 100 µM | TGI (HCT-116 colon): > 100 µM | TGI (MDA-MB-231 breast): > 100 µM | TGI (A498 renal): > 100 µM | TGI (SK-MEL-28 melanoma): > 100 µM | TGI (NCI/ADR-RES ovarian): > 100 µM | TGI (SR leukemia): > 100 µM | TGI (OVCAR-8 ovarian): > 100 µM | TGI (MCF7 breast): > 100 µM | TGI (HCT-15 colon): > 100 µM | TGI (MDA-MB-435): > 100 µM | TGI (SF-268 CNS): > 100 µM | TGI (HS 578T breast): > 100 µM | TGI (HOP-92 NSCLC): > 100 µM | TGI (786-0 renal): > 100 µM | TGI (IGROV1 ovarian): > 100 µM | TGI (RXF 393 renal): > 100 µM | TGI (MALME-3M melanoma): > 100 µM | TGI (A549 NSCLC): > 100 µM | TGI (CAKI-1 renal): > 100 µM | TGI (MDA-N): > 100 µM | TGI (NCI-H522 lung): > 100 µM | TGI (SK-MEL-5 melanoma): 41.6 µM | TGI (HCC-2998 colon): > 100 µM | TGI (HOP-62 NSCLC): > 100 µM | TGI (MOLT-4 leukemia): > 100 µM | TGI (UO-31 renal): > 100 µM | TGI (KM12 colon): > 100 µM | TGI (SW-620 colon): > 100 µM | TGI (UACC-257 melanoma): 95.4 µM | TGI (NCI-H460 lung): > 100 µM | TGI (LOX IMVI melanoma): > 100 µM | TGI (OVCAR-3 ovarian): 48.3 µM | TGI (CCRF-CEM leukemia): > 100 µM
